Ends that are not written are not given here.
Legend:
MDR P. aeruginosa = assay: microbe, parasite or virus in culture; details: for MIC in 0.2% albumin and 0.01% AcOH added CLSI standard condition, MDR P. aeruginosa: CAMHB plus 0.2% bovine serum albumin and 0.01% acetic acid, values marked * in Table 2; for Minimum inhibitory concentrations, MDR P. aeruginosa: CLSI broth microdilution, CAMHB with 50 mg/L Ca2+, 10 mg/L Mg2+, 5 × 10^5 CFU/ml, 18 h 37 °C, no visible turbidity, triplicate, strain CCARM 2180
In short: (§1)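 Broth microdilution per CLSI in cation-adjusted Mueller–Hinton broth with added calcium (50 mg/L) and magnesium (10 mg/L); mid-log bacteria at a final 5 × 10^5 CFU/ml were incubated with peptide for 18 h at 37 °C. MIC was the lowest concentration without visible turbidity, in triplicate.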

MDR A. baumannii = assay: microbe, parasite or virus in culture; details: for MIC in 0.2% albumin and 0.01% AcOH added CLSI standard condition, MDR A. baumannii: CAMHB plus 0.2% bovine serum albumin and 0.01% acetic acid, values marked * in Table 2; for Minimum inhibitory concentrations, MDR A. baumannii: CLSI broth microdilution, CAMHB with 50 mg/L Ca2+, 10 mg/L Mg2+, 5 × 10^5 CFU/ml, 18 h 37 °C, triplicate, strain ATCC BAA-1605
In short: as §1

MDR S. aureus = assay: microbe, parasite or virus in culture; details: for MIC in 0.2% albumin and 0.01% AcOH added CLSI standard condition, MDR S. aureus: CAMHB plus 0.2% bovine serum albumin and 0.01% acetic acid, values marked * in Table 2; for Minimum inhibitory concentrations, MDR S. aureus: CLSI broth microdilution, CAMHB with 50 mg/L Ca2+, 10 mg/L Mg2+, 5 × 10^5 CFU/ml, 18 h 37 °C, triplicate, strain KCCM 40510
In short: as §1

MDR E. faecalis = assay: microbe, parasite or virus in culture; details: for MIC in 0.2% albumin and 0.01% AcOH added CLSI standard condition, MDR E. faecalis: CAMHB plus 0.2% bovine serum albumin and 0.01% acetic acid, values marked * in Table 2; for Minimum inhibitory concentrations, MDR E. faecalis: CLSI broth microdilution, CAMHB with 50 mg/L Ca2+, 10 mg/L Mg2+, 5 × 10^5 CFU/ml, 18 h 37 °C, triplicate, strain ATCC 51575
In short: as §1

[1] = Maximum soluble concentration / turbidity; type: physicochemical; details: for Maximum soluble concentration in PBS: lyophilized peptide reconstructed in PBS at 200-6.25 μM, visible turbidity checked every 12 h for 5 days, at least twice
Procedure: Supplementary Methods Bacteria preparation, Antimicrobial peptides preparation, Minimal-inhibitory-concentration measurements, Hemolysis-activity measurements, Tryptophan fluorescence measurements, Isothermal titration calorimetry measurements, Bacteria membrane ion permeation measurements, Outer-inner membrane permeation, Field-emission scanning electron microscopy and Antimicrobial kinetics were performed as described in Materials and Methods. Liposome (LUV) preparation. Bacterial-membrane-mimic DMPC/DMPG unilamellar vesicles (LUV) and mammalian- membrane-mimic PC/cholesterol vesicles with 100-nm diameters were prepared by extrusion. LiposoFast Liposome Factory Basic unit with stabilizer (Avestin, Ottawa, Canada) was used to extrude liposomes 50 times through a polycarbonate membrane filter (pore diameter, 100 nm; filter diameter, 0.75 inches) (Avestin). […] rac-(1-glycerol)) (sodium salt) (DMPG) (Avanti, Alabama, USA); 1,2-Dimyristoyl-sn-glycero-3-phosphocholine (DMPC) (Avanti); and cholesterol (Sigma, Darmstadt, Germany) were used. For circular dichroism, isothermal titration calorimetry, tryptophan fluorescence, and dynamic light scattering experiments, liposomes were reconstructed and resuspendedwith phosphate-buffered saline (PBS; Welgene Inc, Gyeongsangbuk-do, Korea). For calcein-permeation tests, liposomes were reconstructed with calcein solutions (80 mM, 40 mM, 30 mM, 20 mM, and 10 mM) (Sigma, Darmstadt, Germany), purified with Sephadex-G50 columns (Pharmacia biotech, Stockholm, Sweden), and resuspended with PBS. Maximum-soluble -concentration measurements. […] turbidity with PBS. The lowest concentration of peptide without visible turbidity was determined to be the maximu m soluble concentration. Each experiment was performed at least twice. Circular dichroism (CD) spectrum. DMPC/PG -liposome, PC/cholesterol -liposome, and peptide stock solutions were diluted in PBS. For circular dichroism, PBS with neither liposome nor peptides was also prepared. Liposomes and peptides were mixed to […] Samples were transferred into type J/1 cuvettes (Jasco, Tokyo, Japan). Cuvettes were placed into the J -815 circular -dichroism spectrometer (Jasco, Tokyo, Japan). Measurement parameters were as follows: wavelength, 190 -260 nm; data pitch, 0.2 nm; bandwidth, 1.00 nm; […] Each experiment was performed in triplicate. Data below 197 nm was not analyzed because o f experimental difficulties in obtaining those spectra. Each experiment was performed at least twice. Artificial membrane calcein permeation measurements. Calcein fluorescence was used to measure peptide -induced liposome permeation. Calcein solutions (10 mM, 20 mM, or 60 mM) containing PC/PG liposomes and peptides were diluted in PBS ( ×1, ×2, ×3, ×8). […] Liposome solutions (180 μl) were transferred to wells of black, clear -bottomed 96 -well plates (Costar, New York, USA). Peptide […] Liposome-containing plates and peptide -containing plates were inserted into a Flexstation 3 Multi -Mode Microplate Reader (Molecular Devices, California, USA). Peptide solutions (20 μl) were transferred and mixed with liposome solution automatical ly after 30 sec. […] Measurement parameters were as follows: excitation, 490 nm; emission, 520 nm; temperature, 37 °C. […] was transferred and mixed with the liposome -peptide solu tions automatically after 300 sec to acquire fluorescence at maximum leakage. […] Fluorescence measured between 0 -300 sec after addition of 0 μg/ml peptide was considered the baseline. Each experiment was performed at least twice. Dynamic light scattering (DLS) measurements. Dynamic light scattering was used to measure peptide -induced liposome volume changes. PC/PG -liposome stock solutions and peptides were resuspended in PBS. Liposomes and peptides were mixed to […]

human red blood cells = assay: Hemolytic activity; type: cell-based; details: red cells of human, 18 h
In short: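 Haemolysis was read as A540 of cleared supernatants after 18 h at 37 °C, with 0% and 100% lysis set by peptide-free PBS and 1% Triton X-100 and melittin as positive control. Human RBCs were at 4% final, peptide serially diluted 100–0.78 μM; three replicates.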

| Substance | MIC in 0.2% albumin and 0.01% AcOH added CLSI standard condition, MDR P. aeruginosa (MDR P. aeruginosa) | Minimum inhibitory concentrations, MDR P. aeruginosa (MDR P. aeruginosa) | MIC in 0.2% albumin and 0.01% AcOH added CLSI standard condition, MDR A. baumannii (MDR A. baumannii) | Minimum inhibitory concentrations, MDR A. baumannii (MDR A. baumannii) | MIC in 0.2% albumin and 0.01% AcOH added CLSI standard condition, MDR S. aureus (MDR S. aureus) | Minimum inhibitory concentrations, MDR S. aureus (MDR S. aureus) | MIC in 0.2% albumin and 0.01% AcOH added CLSI standard condition, MDR E. faecalis (MDR E. faecalis) | Minimum inhibitory concentrations, MDR E. faecalis (MDR E. faecalis) | solubility ([1]; distilled water) | Maximum soluble concentration in PBS [1] | Hemolysis percent, 25 μM (human red blood cells) | Hemolysis percent, 50 μM (human red blood cells) | Hemolysis percent, 100 μM (human red blood cells) | MIC at TM potential condition, S. aureus KCCM 40510 (MDR S. aureus; bacteria OD 0.1 (5 x 10^7 cfu/ml), CAMHB, 1% DMSO) |
| --- | --- | --- | --- | --- | --- | --- | --- | --- | --- | --- | --- | --- | --- | --- |
| GVLVWFRRR-NH2 [Ptg C-ter 2] | > 20 µM | > 20 µM | > 20 µM | > 20 µM | > 20 µM | > 20 µM | > 20 µM | > 20 µM | < 500 µM | 100 µM | 0.52 ±0.05% | 1.14 ±0.02% | 1.80 ±0.07% | – |
| WLRRWWIRV-NH2 [HLWCopW29-2] | > 20 µM | > 20 µM | 2.5 µM | 5 µM | 10 µM | – | 10 µM | – | – | > 200 µM | 1.87 ±0.12% | 4.13 ±0.28% | 19.60 ±0.50% | > 20 µM |
| WRLWRWIVR-NH2 [HLWCopW29-3] | > 20 µM | > 20 µM | 20 µM | – | 20 µM | – | 20 µM | – | – | > 200 µM | 1.10 ±0.14% | 1.37 ±0.02% | 4.45 ±0.23% | – |
| GVLVLFRRR-NH2 [Ptg C-ter 1] | > 20 µM | > 20 µM | > 20 µM | > 20 µM | > 20 µM | > 20 µM | > 20 µM | > 20 µM | – | 100 µM | 0.40 ±0.10% | 0.99 ±0.26% | 1.17 ±0.07% | – |
| WLVWVWRRR-NH2 [Hybrid-3] | > 20 µM | > 20 µM | 0.63 µM | 2.5 µM | 5 µM | 10 µM | 2.5 µM | 10 µM | – | > 200 µM | 4.26 ±0.63% | 5.14 ±0.19% | 7.17 ±1.09% | – |

Reference: paper PMC9643456, “Matching amino acids membrane preference profile to improve activity of antimicrobial peptides” (Communications Biology, 2022)
